Patent publication US11208404B2 (PERENNA PHARMACEUTICALS, INC., priority 2017, dated 2021)
Where two headings read alike, the source gives them in different places.

Columns and labels:
ALCAT1 [1] = molecular target: T1, ALCAT1 (Homo sapiens (Human), UniProt Q6UWP7); assay: In vitro acyltransferase assay for ALCAT1 inhibitors; assay type: biochemical; conditions: for inhibition at 1 µM / % inh @ 1 μM: 1 μM compound; for inhibition at 1 µM / inhibition at 10 µM / % inh @ 1 μM: in vitro enzymatic assay; for inhibition at 10 µM: 10 μM compound; for IC50: ALCAT1 enzyme activity
Method in brief: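 Membrane fractions from Sf9 cells expressing human ALCAT1 incubated 30 min at room temperature with 100 µM MLCL or LPG and 25 µM [14C]acyl-CoA (or 100 µM NBD-CoA) in 50 mM Tris/HCl pH 7.0.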
Target sequence in this assay (Q6UWP7 whole entry): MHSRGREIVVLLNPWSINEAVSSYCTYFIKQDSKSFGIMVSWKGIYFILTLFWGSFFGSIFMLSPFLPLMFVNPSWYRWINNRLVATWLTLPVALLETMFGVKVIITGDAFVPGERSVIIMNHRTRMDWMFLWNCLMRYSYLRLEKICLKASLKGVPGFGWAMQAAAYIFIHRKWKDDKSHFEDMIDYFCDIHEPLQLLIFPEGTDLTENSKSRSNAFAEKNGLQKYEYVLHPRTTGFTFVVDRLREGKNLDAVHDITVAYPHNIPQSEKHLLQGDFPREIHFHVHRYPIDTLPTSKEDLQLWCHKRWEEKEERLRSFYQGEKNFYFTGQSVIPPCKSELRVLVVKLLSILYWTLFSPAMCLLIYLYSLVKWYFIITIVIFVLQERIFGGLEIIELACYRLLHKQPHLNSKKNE

ALCAT1 [2] = molecular target: T1, ALCAT1; assay: Cell-based assay for ALCAT inhibitor compounds (H9C2 cells); conditions: H9c2, 3 μM compound; H9C2 vector cell line and H9C2 with stable overexpression of ALCAT1
Description: The assay was performed on the H9C2 vector cell line and H9C2 with stable overexpression of ALCAT1. Materials used in the protocol were CoA, LPG, compounds, chloroform, methanol, 0.9% KCl, 6-well-plates, 1.5 mL tubes, DMEM, FBS, P/S and PBS.
Cells were seeded in 6-well-plates, 8×10^5 cells/well, and cultured at 37° C. in 5% CO2 overnight.
Cells were washed once with ice-cold PBS, collected in ice-cold PBS and centrifuged at 5000 rpm for 5 min at 4° C. 200 μL of chloroform: methanol (2:1) was added to the cell pellet, which was vortexed to suspend the cells and incubated at RT for 1 hr.
40 μL of 0.9% KCl was added and the sample was vortexed before centrifugation at 10000 rpm for 5 min at RT. The aqueous phase (upper layer) was discarded and the organic phase (lower layer) was loaded to a TLC plate (10 cm×20 cm), 40 μL/sample.
The plates were developed in chloroform: methanol: water (65:25:4) for about 30 min and scanned using a Typhoon Scanner. The bands intensity was analysed using ImageJ and the inhibition activity of the tested compounds was calculated.
Compound inhibitors for ALCAT1 enzyme were analyzed by an in vitro cell-based assay as detailed above.
Target sequence in this assay (Q6UWP7 whole entry, species assumed): as the sequence (Q6UWP7 whole entry) above

[3] = read-out: IC50 values (upper bounds)
[4] = triplicates, GraphPad, read-out: IC50

| SMILES | inhibition at 1 µM (ALCAT1 [1]) [%] | inhibition at 10 µM (ALCAT1 [1]) [%] | IC50 (ALCAT1 [1]; [3]) [nM] | IC50 (ALCAT1 [1]; [4]) [nM] | inhibition at 3 µM (ALCAT1 [2]) [%] | % inh @ 1 μM (ALCAT1 [1]) |
| --- | --- | --- | --- | --- | --- | --- |
| COc1ccc(Br)cc1C(=O)Nc1cc(-c2nnc(-c3ccco3)o2)ccc1F [Compound 183, 5-Bromo-N-(2-fluoro-5-(5-(furan-2-yl)-1,3,4-oxadiazol-2-yl)phenyl)-2-methoxybenzamide] | 100 | – | < 100 | 24 | 62 | 100/100% |
| COc1ccc(Cl)cc1C(=O)Nc1cc(-c2nnc(-c3ccco3)o2)ccc1F [Compound 184, 5-Chloro-N-(2-fluoro-5-(5-(furan-2-yl)-1,3,4-oxadiazol-2-yl)phenyl)-2-methoxybenzamide] | 100 | – | < 100 | 18 | 57 | 100/100% |
| CCCOc1ccc(C)cc1C(=O)Nc1cc(-c2nnc(-c3ccco3)o2)ccc1F [Compound 208, N-(2-Fluoro-5-(5-(furan-2-yl)-1,3,4-oxadiazol-2-yl)phenyl)-5-methyl-2-propoxybenzamide] | 97 | – | – | 76 | 36 | 98% |
| CCCOc1ccc(Cl)cc1C(=O)Nc1cc(-c2nnc(-c3ccco3)o2)ccc1F [Compound 209, 5-Chloro-N-(2-fluoro-5-(5-(furan-2-yl)-1,3,4-oxadiazol-2-yl)phenyl)-2-propoxybenzamide] | 100 | 100 | < 100 | 25 | 37 | – |
| CCCOc1ccc(F)cc1C(=O)Nc1cc(-c2nnc(-c3ccco3)o2)ccc1F [Compound 210, 5-Fluoro-N-(2-fluoro-5-(5-(furan-2-yl)-1,3,4-oxadiazol-2-yl)phenyl)-2-propoxybenzamide] | 97 | 97 | – | 66 | 24 | – |
| CCOc1ccc(Cl)cc1C(=O)Nc1cc(-c2nnc(-c3ccco3)o2)ccc1F [Compound 216, 5-chloro-2-ethoxy-N-(2-fluoro-5-(5-(furan-2-yl)-1,3,4-oxadiazol-2-yl)phenyl)benzamide] | 100 | – | < 100 | 19 | 45 | 100/100% |
| CCOc1ccc(C)cc1C(=O)Nc1cc(-c2nnc(-c3ccco3)o2)ccc1F [Compound 221, 2-Ethoxy-N-(2-fluoro-5-(5-(furan-2-yl)-1,3,4-oxadiazol-2-yl)phenyl)-5-methylbenzamide] | 100 | – | < 100 | 31 | 38 | 100/100% |
| CCOc1ccc(CC)cc1C(=O)Nc1cc(-c2nnc(-c3ccco3)o2)ccc1F [Compound 222, 2-Ethoxy-5-ethyl-N-(2-fluoro-5-(5-(furan-2-yl)-1,3,4-oxadiazol-2-yl)phenyl)benzamide] | 100 | – | < 35 | 8 | 85 | 97% |
| CCCc1ccc(OC)c(C(=O)Nc2cc(-c3nnc(-c4ccco4)o3)ccc2F)c1 [Compound 281, N-(2-Fluoro-5-(5-(furan-2-yl)-1,3,4-oxadiazol-2-yl)phenyl)-2-methoxy-5-propylbenzamide] | 100 | – | < 100 | 24 | 65 | 97% |
| O=C(Nc1cccc(-c2nnc(-c3ccco3)o2)c1Cl)c1ccccc1F [Compound 297] | 75 | – | – | 290 | – | 83% |
| O=C(Nc1cccc(-c2nnc(-c3cc[nH]n3)o2)c1)c1ccccc1F [Compound 298, N-(3-(5-(1H-pyrazol-3-yl)-1,3,4-oxadiazol-2-yl)phenyl)-2-fluorobenzamide] | 15 | – | – | – | – | – |
| COc1ccc(C)cc1C(=O)Nc1cc(-c2nnc(-c3ccco3)o2)ccc1F [Compound 300, N-(2-Fluoro-5-(5-(furan-2-yl)-1,3,4-oxadiazol-2-yl)phenyl)-2-methoxy-5-methylbenzamide] | 96 | – | < 100 | 30 | 31 | – |
| O=C(Nc1cc(-c2nnc(-c3ccco3)o2)ccc1F)c1ccccc1OC(F)(F)F [Compound 301, N-(2-Fluoro-5-(5-(furan-2-yl)-1,3,4-oxadiazol-2-yl)phenyl)-2-(trifluoromethoxy)benzamide] | – | – | – | 100 | – | – |
| O=C(Nc1cc(-c2nnc(-c3ccco3)s2)ccc1F)c1ccccc1F [Compound 325] | 63 | – | – | – | – | – |
| O=C(Nc1cc(-c2nnc(-c3ccco3)o2)ccc1F)c1ccc2c(c1)COC2 [Compound 331] | 12 | – | – | – | – | – |
| O=C(Nc1cc(-c2nnc(-c3ccco3)o2)ccc1F)c1cc(Cl)ccc1Cl [Compound 347] | 94 | – | – | – | – | – |
| COc1ccc(Cl)cc1C(=O)Nc1cc(-c2nnc(-c3cnco3)o2)ccc1F [Compound 364] | – | – | – | 120 | – | – |
| COc1ccc(Cl)cc1NC(=O)c1cc(-c2nnc(-c3ccco3)o2)ccc1F [Compound 480, N-(5-chloro-2-methoxyphenyl)-2-fluoro-5-(5-(furan-2-yl)-1,3,4-oxadiazol-2-yl)benzamide] | 96 | – | – | – | – | – |

Next, values leading:

| inhibition at 1 µM (ALCAT1 [1]) [%] | inhibition at 10 µM (ALCAT1 [1]) [%] | IC50 (ALCAT1 [1]; [3]) [nM] | IC50 (ALCAT1 [1]; [4]) [nM] | inhibition at 3 µM (ALCAT1 [2]) [%] | % inh @ 1 μM (ALCAT1 [1]) | SMILES |
| --- | --- | --- | --- | --- | --- | --- |
| 95 | 100 | < 100 | 31 | 9 | – | CCOc1ccc(Br)cc1C(=O)Nc1cccc(-c2nnc(-c3ccco3)o2)c1 [Compound 118, 5-Bromo-2-ethoxy-N-(3-(5-(furan-2-yl)-1,3,4-oxadiazol-2-yl)phenyl)benzamide] |
| 100 | 100 | – | 48 | 27 | – | COc1c(Br)cc(Br)cc1C(=O)Nc1cccc(-c2nnc(-c3ccco3)o2)c1 [Compound 168, 3,5-Dibromo-N-(3-(5-(furan-2-yl)-1,3,4-oxadiazol-2-yl)phenyl)-2-methoxybenzamide] |
| 99 | – | < 100 | 34 | 22 | 98% | CCOc1ccc(CC)cc1C(=O)Nc1cccc(-c2nnc(-c3ccco3)o2)c1 [Compound 219, 2-Ethoxy-5-ethyl-N-(3-(5-(furan-2-yl)-1,3,4-oxadiazol-2-yl)phenyl)benzamide] |
| 97 | – | – | 60 | 7 | – | COc1ccc(OC(F)(F)F)cc1C(=O)Nc1cccc(-c2nnc(-c3ccco3)o2)c1 [Compound 279, N-(3-(5-(Furan-2-yl)-1,3,4-oxadiazol-2-yl)phenyl)-2-methoxy-5-(trifluoromethoxy)benzamide] |
| 55 | – | – | – | – | 73% | O=C(Nc1cccc(-c2nnc(-c3ccco3)o2)c1)c1cccc2c1OCCC2 [Compound 296] |
| 97 | – | – | 36 | 20 | – | O=C(Nc1cc(-c2nnc(-c3ccco3)o2)ccc1F)c1ccccc1OC(F)F [Compound 302, 2-(Difluoromethoxy)-N-(2-fluoro-5-(5-(furan-2-yl)-1,3,4-oxadiazol-2-yl)phenyl)benzamide] |
| 30 | – | – | – | – | – | Cc1c(C(=O)Nc2cc(-c3nnc(-c4ccco4)o3)ccc2F)cccc1[N+](=O)[O-] [Compound 332] |
| 18 | – | – | – | – | – | COc1ccc(C(=O)Nc2cc(-c3nnc(-c4ccco4)o3)ccc2F)cc1[N+](=O)[O-] [Compound 333] |
| 35 | – | – | – | – | – | Cc1ccc(C(=O)Nc2cc(-c3nnc(-c4ccco4)o3)ccc2F)cc1[N+](=O)[O-] [Compound 334] |
| 66 | – | – | – | – | – | O=C(Nc1cccc(-c2nnc(-c3ccco3)o2)c1)c1cc([N+](=O)[O-])ccc1F [Compound 336] |
| 66 | – | – | 760 | – | – | O=C(Nc1cccc(-c2nnc(-c3ccco3)o2)c1)c1cc([N+](=O)[O-])ccc1Cl [Compound 337] |
| 65 | – | – | – | – | – | O=C(Nc1cccc(-c2nnc(-c3ccco3)o2)c1)c1cc(F)cc([N+](=O)[O-])c1 [Compound 338] |
| 72 | – | – | – | – | – | O=C(Nc1cccc(-c2nnc(-c3ccco3)o2)c1)c1cccc([N+](=O)[O-])c1F [Compound 340] |
| 73 | – | – | 500 | – | – | COc1ccc([N+](=O)[O-])cc1C(=O)Nc1cccc(-c2nnc(-c3ccco3)o2)c1 [Compound 341] |
| 41 | – | – | – | – | – | COc1cc(C(=O)Nc2cccc(-c3nnc(-c4ccco4)o3)c2)cc([N+](=O)[O-])c1 [Compound 342] |
| 33 | – | – | – | – | – | O=C(Nc1cccc(-c2nnc(-c3ccco3)o2)c1)c1c(F)ccc([N+](=O)[O-])c1F [Compound 344] |
| 24 | – | – | – | – | – | O=C(Nc1cccc(-c2nnc(-c3ccco3)o2)c1)c1cncc([N+](=O)[O-])c1 [Compound 345] |
| 63 | 68 | – | – | – | – | CC(C)Oc1ccc(Br)cc1C(=O)Nc1cccc(-c2nnc(-c3ccco3)o2)c1 [Compound 477] |
| 57 | 62 | – | – | – | – | CC(C)Oc1ccc(Cl)cc1C(=O)Nc1cccc(-c2nnc(-c3ccco3)o2)c1 [Compound 478] |
